# Measured values: patent US9980925B2, “Xanthohumol in antiarrythmic applications” (University of South Carolina, priority 2016, dated 2018)
# Entries after “also recorded” stand apart in the source; their conditions may differ.
# Tests used:
# Type in all cases: cell-based
# rat ventricular myocytes [1] = assay: Global whole-cell Ca2+ transients in field-stimulated cells (Fluo-4 AM); conditions: for increase in Ca2+-transient peaks following a 30-second train of high-frequency stimulation: 0.5 to 2 Hz
# Description: (§1) Whole-cell Ca^2+ transients occurring spontaneously or evoked electrically by field stimulation or voltage-clamp depolarizations or by rapid application of caffeine (2.5 mM for 0.5 or 1 second) were measured fluorometrically after incubating the cells in fluo-4 AM (2 μM) for 30 minutes. The dye was excited by 460 nm light from a LED-based illuminator (Prismatix, Modiin (lite, Israel), and Ca^2+-dependent fluorescent light (>500 nm) was detected with a photomultiplier tube that was placed behind a moveable, adjustable diaphragm, which served to limit the area of detection to the voltage-clamped cell. The cellular fluorescence signals (ΔF/F0) were normalized by dividing the changes in whole-cell fluorescence (ΔF) with the baseline fluorescence (F0).
# Effects of xanthohumol on cardiac Ca^2+ signaling were evaluated in enzymatically dispersed ventricular myocytes that were subjected to field stimulation or voltage-clamp depolarizations in the whole-cell, perforated patch configuration to activate Ca^2+ current (ICa) and SR Ca^2+ release.
# (§2) The cells were incubated with fluo-4 AM for 30 minutes to allow fluorometric imaging of Ca^2+ sparks and measurements of whole-cell Ca^2+ transients. Rapid perfusion of caffeine was used to release, and SR Ca^2+ stores and assesses their size according to known methodology. Xanthohumol was tested in the range from 5 nM to 1 μM and was used routinely either with acute application of 50 nM drug or by incubation of cells in 10 nM xanthohumol-containing solutions for 30 minutes. All cells were first perfused with Tyrode's solution (137 mM NaCl, 10 mM HEPES, 10 mM glucose, 5.4 mM KCl, 2 mM CaCl, 1 mM MgCl) and thereafter were subjected to the following in the absence or presence of xanthohumol:
# (§3) Each experimental condition was typically sustained for 2-8 minutes to achieve equilibration. To avoid cell damage due to continuous light exposure, recordings were generally performed for intervals of only 5-10 seconds, but repeated every minute. Cells challenged with isoproterenol or low K^+ typically developed more abundant spontaneous Ca^2+ sparks and interdispersed irregular whole-cell Ca^2+ transients, especially in the absence of xanthohumol.
# rat ventricular myocytes [2] = assay: SR Ca2+ content and refilling after caffeine-induced Ca2+ release
# Description: as §1, §2
# The aim of this set of experiments was to examine the effect of the xanthohumol on the SR Ca^2+ content and its recirculation. FIG. 14 compares the magnitude of Ca^2+ transients in electrically stimulated cells paced at 0.5 Hz to Ca^2+ transient that was produced when one stimulus was replaced by a rapid application of 2.5 mM caffeine for 1 second. […] It was concluded that xanthohumol suppresses slightly the Ca^2+ content of the SR, but this effect was fully reversed by isoproterenol.
# To probe the effect of xanthohumol on recirculation of SR Ca^2+ and its refilling following depletion of its content by caffeine, the rate of recovery of electrically triggered Ca^2+ transients back to control levels was quantified as a measure of refilling of the SR store. […].
# rat ventricular myocytes [3] = assay: Ca2+ transients in voltage-clamped cells (Fluo-4 AM)
# Description: (§4) Cells were voltage-clamped in the whole-cell perforated patch configuration at a holding potential of −50 or −60 mV and depolarized to +10 mV to activate L-type Ca^2+ current (ICa) and Ca^2+-induced Ca^2+ release using a Dagan amplifier and pClamp software (Clampex 10.2). Borosilicate patch pipettes were prepared using a horizontal pipette puller (Model P-87; Sutter Instruments, Novato, Calif.). […] Rapid applications of 2.5 mM caffeine and pharmacological interventions were used to elucidate the action mechanism of xanthohumol. Most experiments were performed at 35° C. Voltage-clamp experiments testing dose response were performed at both 25° C. and 35° C.
# as §1
# The effects of xanthohumol on Ca^2+ signaling parameters was compared using concentrations ranging between 1 nM and 1 μM. The experiments were carried out under perforated patch conditions both at room temperature and 35° C. Ventricular myocytes incubated in fluo-4 AM were activated by 100-ms depolarizing pulses from −50 to 10 m versus at room temperature. Ca^2+ current was suppressed by xanthohumol when the concentrations of the drug exceeded 100 nM (FIG. 16, panel A). […] At room temperatures, xanthohumol also slowed the kinetics of relaxation of Ca^2+ transients, as it suppressed its peak, at concentrations exceeding 50 nM (FIG. 16, panels B and C; P<0.001). […]
# [4] = target: T1, L-type Ca^2+ current (ICa) (Rattus norvegicus, UniProt P22002); assay: Voltage-clamp recording of L-type Ca2+ current (perforated patch)
# T1 construct: enzymatically dispersed ventricular myocytes that were subjected to field stimulation or voltage-clamp depolarizations; endogenous in cells; host or cells: freshly isolated ventricular cardiomyocytes of male Sprague-Dawley rats
# Description: as §4
# The effects of xanthohumol on Ca^2+ signaling parameters was compared using concentrations ranging between 1 nM and 1 μM. The experiments were carried out under perforated patch conditions both at room temperature and 35° C. Ventricular myocytes incubated in fluo-4 AM were activated by 100-ms depolarizing pulses from −50 to 10 m versus at room temperature. Ca^2+ current was suppressed by xanthohumol when the concentrations of the drug exceeded 100 nM (FIG. 16, panel A). […] At room temperatures, xanthohumol also slowed the kinetics of relaxation of Ca^2+ transients, as it suppressed its peak, at concentrations exceeding 50 nM (FIG. 16, panels B and C; P<0.001). […] It was concluded that higher metabolic states of myocytes, induced by higher temperatures and adrenergic stimulation, reduce the inhibitory effects of xanthohumol on Ca^2+ transients.
# [5] = tested on: rat ventricular cardiomyocyte; assay: ROS production from DCF fluorescence in ventricular myocytes incubated with H2DCFDA
# Description: A Noran Odyssey XL rapid two-dimensional laser-scanning confocal microscope (Noran Instruments, Madison, Wis.; Zeiss Axiovert TV135) was used with a x63 water-immersion objective, λex=488 nm and λem>515 nm to measure kinetics and subcellular distribution of fluorescence signals according to known protocols. Ca^2+ was imaged after 20- to 30-minute incubation with fluo-4 AM (2 μM). ROS was measured by incubating cells with H2DCFDA (5 μM for 30 minutes), which is cleaved by esterases to form less permeant 2′,7′-dichlorodihydrofluorescein that is then oxidized by free radical compounds to fluorescent 2′,7′-dichlorofluorescein (DCF) as described previously. Fluorescence images of ROS were recorded at low fluorescence intensity and frame rate (about 1 Hz) and required considerable signal averaging (FIG. 1).
# Measurements of ROS were also carried out using the oxygen-radical sensitive dye 2′,7′-dichlorofluorescein (DCF) (5 μM). The effect of the xanthohumol was compared with the antioxidant N-acetyl cysteine (10 mM).
# ROS production was evaluated from the rate of increase in DCF fluorescence in ventricular myocytes incubated with H2DCFDA.
# rat ventricular myocytes [6] = assay: Ca2+ spark imaging (Fluo-4 epifluorescence)
# Description: Ca^2+ sparks (Fluo-4, λex=488 nm) were also measured with the LEICA DMI6000 microscope in the epifluorescence mode but now operating at 60-100 frames/s (FIG. 3, FIG. 4 (panels A-C); FIG. 5, FIG. 6, and FIG. 7); the average baseline fluorescence intensity (F0) was calculated from several frames without indication of spontaneous Ca^2+ signals in the form of sparks or waves. Images were filtered by 2 pixel×2 pixel averaging. The amplitudes of the Ca^2+-dependent cellular fluorescence signals were quantified as ΔF/F0, where ΔF is the change in fluorescence measured within selected regions of interest. The time constant of decay of Ca^2+ transients (Tau) was estimated by approximation with a single exponential.
# as §2, §3
# [7] = isoproterenol 100 nM, 0.75 Hz, 35° C.
# [8] = 50-100 nM, 35° C., field-stimulated
# [9] = xanthohumol 50-300 nM co-applied with isoproterenol
# T1 sequence (P22002 whole entry, other chains not shown): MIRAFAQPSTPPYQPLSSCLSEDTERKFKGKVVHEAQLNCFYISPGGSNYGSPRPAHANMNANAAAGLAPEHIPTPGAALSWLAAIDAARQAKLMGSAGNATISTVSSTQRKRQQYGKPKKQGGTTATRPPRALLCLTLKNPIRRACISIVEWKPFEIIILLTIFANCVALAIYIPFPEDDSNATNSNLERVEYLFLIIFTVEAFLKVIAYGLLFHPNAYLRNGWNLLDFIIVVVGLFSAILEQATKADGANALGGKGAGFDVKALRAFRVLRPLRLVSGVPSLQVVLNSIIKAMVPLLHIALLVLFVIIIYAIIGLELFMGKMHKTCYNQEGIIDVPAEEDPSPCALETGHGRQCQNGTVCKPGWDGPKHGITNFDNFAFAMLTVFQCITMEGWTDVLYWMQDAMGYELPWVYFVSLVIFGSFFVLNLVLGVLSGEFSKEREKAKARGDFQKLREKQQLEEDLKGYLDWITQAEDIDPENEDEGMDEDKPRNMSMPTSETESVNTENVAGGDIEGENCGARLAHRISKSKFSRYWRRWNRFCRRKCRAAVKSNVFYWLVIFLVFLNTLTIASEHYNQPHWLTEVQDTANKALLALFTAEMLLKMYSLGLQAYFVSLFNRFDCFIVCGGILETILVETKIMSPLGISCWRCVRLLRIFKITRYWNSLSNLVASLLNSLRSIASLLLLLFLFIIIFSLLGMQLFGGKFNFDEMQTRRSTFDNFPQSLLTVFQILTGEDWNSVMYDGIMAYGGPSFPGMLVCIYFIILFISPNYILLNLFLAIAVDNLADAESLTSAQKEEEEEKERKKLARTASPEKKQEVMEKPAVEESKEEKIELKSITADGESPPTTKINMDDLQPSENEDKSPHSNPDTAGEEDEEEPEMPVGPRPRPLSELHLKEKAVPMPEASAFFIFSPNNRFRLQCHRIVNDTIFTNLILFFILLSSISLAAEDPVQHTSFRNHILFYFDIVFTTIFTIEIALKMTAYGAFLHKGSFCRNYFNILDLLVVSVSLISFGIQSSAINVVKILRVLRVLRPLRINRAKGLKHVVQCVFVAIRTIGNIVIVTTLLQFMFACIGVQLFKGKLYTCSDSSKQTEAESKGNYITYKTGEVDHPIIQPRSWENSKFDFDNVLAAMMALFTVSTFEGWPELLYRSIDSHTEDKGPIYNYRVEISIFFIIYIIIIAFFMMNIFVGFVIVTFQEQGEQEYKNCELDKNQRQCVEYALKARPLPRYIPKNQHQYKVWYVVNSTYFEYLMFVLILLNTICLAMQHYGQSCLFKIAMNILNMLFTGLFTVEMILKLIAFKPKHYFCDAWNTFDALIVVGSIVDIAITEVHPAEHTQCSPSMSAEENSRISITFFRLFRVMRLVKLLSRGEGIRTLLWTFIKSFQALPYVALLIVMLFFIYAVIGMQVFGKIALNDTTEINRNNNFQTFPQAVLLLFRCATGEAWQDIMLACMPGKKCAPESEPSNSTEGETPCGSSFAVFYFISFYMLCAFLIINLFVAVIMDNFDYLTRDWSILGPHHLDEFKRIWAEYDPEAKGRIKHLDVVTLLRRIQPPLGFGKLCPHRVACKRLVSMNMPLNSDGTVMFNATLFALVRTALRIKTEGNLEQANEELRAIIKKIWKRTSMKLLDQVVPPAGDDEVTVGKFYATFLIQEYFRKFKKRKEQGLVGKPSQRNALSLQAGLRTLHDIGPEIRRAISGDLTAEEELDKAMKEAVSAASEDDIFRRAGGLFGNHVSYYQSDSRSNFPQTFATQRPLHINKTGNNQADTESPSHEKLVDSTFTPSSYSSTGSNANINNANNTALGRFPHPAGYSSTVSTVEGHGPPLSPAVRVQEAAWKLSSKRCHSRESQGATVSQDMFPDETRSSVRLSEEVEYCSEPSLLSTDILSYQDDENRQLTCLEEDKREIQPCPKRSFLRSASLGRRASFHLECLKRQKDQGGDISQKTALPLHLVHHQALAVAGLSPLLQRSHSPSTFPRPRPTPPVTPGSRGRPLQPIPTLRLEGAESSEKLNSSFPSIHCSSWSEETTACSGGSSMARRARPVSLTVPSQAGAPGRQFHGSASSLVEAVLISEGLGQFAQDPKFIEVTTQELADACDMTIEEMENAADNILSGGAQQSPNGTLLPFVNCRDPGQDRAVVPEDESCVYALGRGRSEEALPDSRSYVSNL
# T1 sequence (P54290 25-944 partner limits assumed, other chains not shown): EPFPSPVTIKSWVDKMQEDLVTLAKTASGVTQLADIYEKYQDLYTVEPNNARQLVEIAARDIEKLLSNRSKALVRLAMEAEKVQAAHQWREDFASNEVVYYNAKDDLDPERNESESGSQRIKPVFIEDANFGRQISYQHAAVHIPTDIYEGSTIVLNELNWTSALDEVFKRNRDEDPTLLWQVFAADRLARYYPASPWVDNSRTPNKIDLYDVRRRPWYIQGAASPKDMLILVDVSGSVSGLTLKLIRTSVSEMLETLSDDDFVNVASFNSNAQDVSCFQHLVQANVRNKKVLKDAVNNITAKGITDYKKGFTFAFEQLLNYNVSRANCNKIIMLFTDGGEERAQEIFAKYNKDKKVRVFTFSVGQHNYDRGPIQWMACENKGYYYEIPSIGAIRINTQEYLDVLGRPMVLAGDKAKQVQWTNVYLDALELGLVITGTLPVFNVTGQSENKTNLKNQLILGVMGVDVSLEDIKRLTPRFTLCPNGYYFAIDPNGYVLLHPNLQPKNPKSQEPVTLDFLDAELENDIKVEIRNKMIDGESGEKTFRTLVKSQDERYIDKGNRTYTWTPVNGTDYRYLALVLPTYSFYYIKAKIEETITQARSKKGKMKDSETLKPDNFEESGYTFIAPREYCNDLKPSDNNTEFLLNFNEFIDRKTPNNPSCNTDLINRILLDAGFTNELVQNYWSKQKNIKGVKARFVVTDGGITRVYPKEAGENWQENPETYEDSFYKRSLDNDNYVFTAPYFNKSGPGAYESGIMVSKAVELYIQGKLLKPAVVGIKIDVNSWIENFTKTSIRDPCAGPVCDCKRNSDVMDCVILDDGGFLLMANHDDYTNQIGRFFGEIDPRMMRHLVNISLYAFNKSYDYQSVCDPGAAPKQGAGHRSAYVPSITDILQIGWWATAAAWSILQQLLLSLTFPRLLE
# T1 sequence (P54290 945-1091 partner limits assumed, other chains not shown): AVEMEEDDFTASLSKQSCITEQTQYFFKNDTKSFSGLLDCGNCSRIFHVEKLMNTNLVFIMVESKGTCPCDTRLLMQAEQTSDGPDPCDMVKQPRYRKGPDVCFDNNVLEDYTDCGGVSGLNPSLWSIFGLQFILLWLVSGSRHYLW
structure (smiles),measurement,setting,value
"CC(C)NCC(O)c1ccc(O)c(O)c1 (stereo not drawn) [isoproterenol, reference compound]",enhancement of rate of relaxation of Ca2+ transients,rat ventricular myocytes [1]; [7],about 30%
same,increase in frequency of spontaneous events,rat ventricular myocytes [1]; [7],3- to 4 fold
same,increase in amplitude of the Ca2+ transients,"rat ventricular myocytes [1]; isoproterenol 100 nM, electrical stimulation 0.75 Hz, 35° C., P=0.0464",50%
same,fraction of the caffeine-releasable Ca2+ pool released by electrical stimulation,"rat ventricular myocytes [2]; isoproterenol 100 nM, 0.5 Hz, 35° C.",enhanced
same,increase of peak of the triggered Ca2+ transient,"rat ventricular myocytes [2]; isoproterenol 100 nM, paced at 0.5 Hz",74.12%
COc1cc(O)c(CC=C(C)C)c(O)c1C(=O)/C=C/c1ccc(O)cc1 [xanthohumol],Ca2+ transients,"rat ventricular myocytes [3]; 10 nM, room temperature",significantly suppressed
same,concentrations above which significant effects on ΔF/F or rate of decay occurred,rat ventricular myocytes [3]; 35° C.,exceeding 300 nM
same,concentrations above which relaxation of Ca2+ transients was slowed and peak suppressed,"rat ventricular myocytes [3]; room temperature, P<0.001",exceeding 50 nM
same,effect on ICa,"[4]; 10 nM, room temperature",little or no effect
same,Ca2+ current,"[4]; 100-300 nM, 35° C.",significantly increased
same,concentration above which Ca2+ current was suppressed,[4]; room temperature,exceeded 100 nM
same,time to suppression of aberrant cellular Ca2+ transients,"rat ventricular myocytes [1]; 30 nM, electrically stimulated 1 Hz, 25° C.",< 10 s
same,"peak ΔF/F0, F0, or decay time constant (Tau) of electrically triggered Ca2+ transients","rat ventricular myocytes [1]; 100 nM, 35° C.",without modifying
same,spontaneously triggered beats induced by rapid electrical stimulation,"rat ventricular myocytes [1]; 100 nM, 35° C.",suppressed significantly
same,frequency of spontaneously triggered Ca2+ oscillations,"rat ventricular myocytes [1]; 1.5 mM K+, xanthohumol 50 nM",markedly reduced
same,concentrations over which Tau was significantly reduced,"rat ventricular myocytes [1]; 0.5 Hz, 35° C. (FIG. 12 C)",over 300 nM
same,toxic concentrations,"rat ventricular myocytes [1]; 35° C., electrically stimulated cells",about 1 mM
same,increase in Ca2+-transient peaks following a 30-second train of high-frequency stimulation,"rat ventricular myocytes [1]; 50-100 nM xanthohumol, n=4",12.14%±2.662
same,normalized ΔF or F0,"rat ventricular myocytes [1]; 50-100 nM, 35° C., 0.5 Hz, statistically insignificant",slight increase
same,aberrant secondary Ca2+ release events,rat ventricular myocytes [1]; [8],blocks
same,amplitude of electrically stimulated cellular Ca2+ transients,rat ventricular myocytes [1]; [8],without decreasing
same,time for effects of xanthohumol to start to develop,rat ventricular myocytes [1]; continuous recordings (FIG. 9),less than 10 seconds
same,Tau of relaxation,"rat ventricular myocytes [1]; range of 10-300 nM, 35° C.",without much change
same,isoproterenol-triggered spontaneous events,rat ventricular myocytes [1]; [9],strong suppression
same,"various parameters of Ca2+ transients (ΔF/F0, F0, Tau)",rat ventricular myocytes [1]; [9],without having a significant effect
same,increase in Ca2+-transient peaks following a 30-second train of high-frequency stimulation,rat ventricular myocytes [1]; xanthohumol and isoproterenol (100 nM),5.002%±0.6667
same,modulatory effect on the uptake kinetics (Tau) following Ca2+ release by caffeine,rat ventricular myocytes [2]; in presence of xanthohumol (50 nM),completely suppressed
same,fractional Ca2+ release (ΔFStim/ΔFCaff),"rat ventricular myocytes [2]; xanthohumol 50 nM, 0.5 Hz, 35° C.",not influenced; also recorded: not significantly reduced
same,rate of refilling of the SR,"rat ventricular myocytes [2]; xanthohumol 50 nM, after caffeine depletion",significantly reduced
same,ΔF/F signal of caffeine-induced Ca2+ release (total Ca2+ content of the SR),"rat ventricular myocytes [2]; xanthohumol 50 nM, caffeine 2.5 mM 1 second, 0.5 Hz, 35° C.",significantly reduced
same,reduction of peak of the triggered Ca2+ transient,"rat ventricular myocytes [2]; xanthohumol 50 nM, paced at 0.5 Hz",22.66%
same,diastolic Ca2+ levels,"rat ventricular myocytes [2]; xanthohumol 50 nM, statistically insignificant",slight increase
same,effect on DCF signal after washout,[5]; after xanthohumol 50 nM,persisted even after washout
same,low K+ solution-induced increase of the DCF signal,"[5]; xanthohumol 50 nM, low K+ 5.4→1.5 mM",effectively suppressed
same,slope of ROS-dependent DCF fluorescence signal (baseline ROS production),"[5]; xanthohumol 50 nM, uncompensated and background-compensated signal",reduced the slope
same,frequency of Ca2+ sparks evoked by withdrawal of extracellular K+,rat ventricular myocytes [6]; 50 nM,markedly decreased
same,time to reduction of spark frequency after application,rat ventricular myocytes [6]; acute 10 nM,≤ 2 min
same,spontaneous Ca2+ spark frequency,"rat ventricular myocytes [6]; acute 10 nM, control cells with high baseline spark frequency, 5.4 mM K+",consistently reduced
same,spontaneously developed Ca2+ oscillations or sparks,"rat ventricular myocytes [6]; incubated 30 minutes in 10 nM, 5.4 mM K+",scarce
same,frequency of sparks/Ca2+ oscillations on reduction of K+ versus non-incubated cells,"rat ventricular myocytes [6]; incubated 30 minutes in 10 nM, K+-free solutions, p<0.005",significantly lower
"CC(=O)N[C@@H](CS)C(=O)O [N-acetyl cysteine, reference compound]",low K+-induced increase of the DCF signal,"[5]; N-acetyl cysteine 10 mM, low K+",suppressed
same,effect on DCF signal after washout,[5]; after N-acetyl cysteine 10 mM,washout rapidly reversed the DCF signal
